Laboratory results from patent US10160986B2, “Chemoenzymatic synthesis of heparin and heparan sulfate analogs” (The Regents of the University of California, priority 2011, dated 2018).
Values belong to the compound of their own block, whether it stands above or below them.

Key:
PmHS2 [1] = assay: Donor substrate specificity of PmHS2 by HPLC (Example 1); format: biochemical, Pasteurella multocida; conditions: acceptor GlcAα2AA 1 mM, UDP-sugar 1 mM, MnCl2 10 mM, pH 6.5, 37° C.
Description: (§1) pH profile by HPLC. Typical enzymatic assays were performed in a 10 μl reaction mixture containing a buffer (100 mM) with a pH in the range of 4.0-10.0, UDP-GlcNAc (1 mM), GlcAβ2AA (1 mM), MnCl2 (10 mM) and KfiA (9.0 μg) or PmHS2 (0.25 μg). Buffers used were: Na2HPO4/citric acid, pH 4.0; MES, pH 5.0-6.5; TrisHCl, pH 7.0-9.0; and CAPS, pH 10.0. Reactions were allowed to proceed for 30 min at 37° C. and were quenched by adding ice-cold 10% (v/v) acetonitrile to make 100-fold dilutions. The samples were then kept on ice until an aliquot of 8 μl was injected and analyzed by a Shimadzu LC-2010A system equipped with a membrane on-line degasser, a temperature control unit and a fluorescence detector. A reverse phase Premier C18 column (250 9 4.6 mm I.D., 5 μm particle size, Shimadzu) protected with a C18 guard column cartridge was used. The mobile phase was 25% (v/v) acetonitrile. The fluorescent compounds GlcAβ2AA and GlcNAcα1-4GlcAβ2AA were detected by excitation at 315 nm and emission at 400 nm.
(§2) Substrate specificity of KfiA and PmHS2. All reactions were carried out in duplicate at 37° C. in MES (100 mM, pH 6.5) containing an UDP-GlcNAc or its derivatives (1 mM), […] (1 mM), MnCl2 (10 mM) and KfiA ([…] PmHS2 (2.5×10^−2 μg μl^−1). At 30 min, 4 h or 16 h, aliquots of reaction mixture were withdrawn and were quenched by adding ice-cold 10% (v/v) acetonitrile to make 100-fold dilutions. The assays were analyzed by HPLC.

PmHS2 [2] = assay: Small-scale PmHS2 donor substrate test by TLC; format: biochemical, Pasteurella multocida; conditions: GlcAβ2AAMe 10 mM, donor 15 mM, MgCl2 10 mM, PmHS2 0.5 mg/mL, pH 7.5, 37° C., 12 hr
Description: Prior to applying the one-pot three-enzyme system shown in FIG. 16 to the preparative-scale synthesis of the disaccharides, UDP-GlcNAc and derivatives F17-1-F17-12 were tested as donor substrates for PmHS2 in small-scale reaction containing Tris-HCl buffer (100 mM, pH 7.5), GlcAβ2AAMe (10 mM), UDP-GlcNAc or a derivative (15 mM), MgCl2 (10 mM), and PmHS2 (0.5 mg/mL). The reactions were carried out at 37° C. for 12 hr and analyzed by thin layer chromatography (TLC).

KfiA = assay: Donor substrate specificity of KfiA by HPLC (Example 1); format: biochemical, E. coli; conditions: acceptor GlcAα2AA 1 mM, UDP-sugar 1 mM, MnCl2 10 mM, pH 6.5, 37° C.
Description: as §1, §2

human FGF-1 = biological target: T1, human FGF-1 (Homo sapiens, UniProt P05230); assay: Inhibition of FGF-1 binding to immobilized heparin-biotin; conditions: compound 1 mM; FGF 1 μM
T1 construct: purchased PeproTech Inc (Rocky Hill, N.J.)
Text: (§3) Materials. Recombinant human fibroblast growth factors FGF-1, FGF-2, FGF-4, and anti-human FGF-1, FGF-2, FGF-4 were purchased from PeproTech Inc (Rocky Hill, N.J.). Heparin-biotin was from Sigma (St. Louis, Mo.). Low molecular weight heparin (LMWH) was bought from AMS Biotechnology (Lake Forest, Calif.). Alexa Fluor® 488 goat anti-rabbit IgG (H+L) was from Invitrogen (Carlsbad, Calif.). 384-Well NeutrAvidin-coated plates for the sialidase assays were from Fisher Biotech.
(§4) Methods. All assays were carried out in duplicate in 384-well NeutrAvidin coated plates. Heparin-biotin (20 μL, 2 μM) was added to each well and the plate was incubated at 4° C. for overnight. The plate was washed with 3 rounds of 1×PBS buffer containing 0.05% Tween-20 and blocked with 1% BSA (50 μL for each well) and incubated at r.t. for 30 min. After the plate was washed three times with 1×PBS buffer containing 0.05% Tween-20, each set of duplicate wells were added 20 μL of human FGF-1, FGF-2, or FGF-4 (1 μM) with or without premixing with LMWH (˜22 nM or 0.1 μM), monosaccharide, or oligosaccharides (100 μM or 1 mM) and the plate was incubate at r.t. for 1 hr. After washing three times with 1×PBS buffer containing 0.05% Tween-20, anti-human FGF-1, FGF-2 or FGF-4 (20 μL) was added and the plate was incubated at r.t. for 1 hr. After the plate was washed three times with 1×PBS buffer containing 0.05% Tween-20, Alexa Fluor® 488 goat anti-rabbit IgG (H+L) (20 μL) was added and the plate was incubated at r.t. for 1 hr. After washed three times with 1×PBS buffer containing 0.05% Tween-20 and once with water, the fluorescent signals of wells in the plate were measured using a microtiter plate reader.

AtGlcAK [3] = biological target: T2, AtGlcAK (Arabidopsis thaliana, UniProt Q93ZC9, I297M); assay: AtGlcAK substrate specificity by TLC and LC-MS; format: biochemical; conditions: sugar 10 mM, ATP 20 mM, AtGlcAK 22 μg, 37° C., 15 hr
T2 construct: made in house; host or cells: E. coli BL21 (DE3)
Description: Substrates specificity assays by thin-layer chromatography (TLC). […] For visualizing compounds on TLC plate, p-anisaldehyde sugar stain was used.
LC-MS assays for AtGlcAK reactions. The AtGlcAK reaction mixtures above were also analyzed by LC-MS. 2 μL of sample was diluted 100 fold and 8 μL was injected into a Waters spherisorb ODS-2 column (5 μm particles, 250 mm length, 4.6 mm I.D.). The sample was eluted with 30% acetonitrile in H2O with 0.1% formic acid and detected by ESI-MS in negative mode.

[4] = system: necrotizing enterocolitis in neonatal rats; assay: Necrotizing enterocolitis neonatal rat model; format: in vivo, Sprague-Dawley rats; conditions: formula containing 300 μg/mL glycan; for mean ileum pathology score (0: healthy; 4: complete destruction): oral gavage twice daily, 96 hours, mean±standard deviation
Description: Rat studies. The efficacy of the synthesized glycans against necrotizing enterocolitis was tested in the same neonatal rat model as previously described for DSLNT. Briefly, pregnant time-dated Sprague-Dawley rats were induced at term and immediately randomized into one of the different study groups. Animals in the dam-fed group (DF) remained with the dam. All other animals were separated from the dam, housed in a temperature- and humidity-controlled incubator and orally gavaged with a special rodent formula (0.2 mL) twice daily. All animals, dam-fed and gavaged, were exposed to 10 min of hypoxia (5% O2, 95% N2) thrice daily in a modular chamber. All animals were sacrificed 96 hours post-partum, and 0.5 cm of the terminal ileum prepared for H&E staining per standard protocols and scored blindly based on morphological changes that included epithelial sloughing, villus edema, infiltration of neutrophils, apoptosis of villus enterocytes, crypt hyperplasia and misaligned nuclei in the epithelium. If at least one pathology sign was observed, a score of 0.5-1.5 was assigned depending on severity. […] The maximum score of 4 was given in case of complete obliteration of the epithelium with or without intestinal perforation. Pathology scores were plotted for each animal and the mean calculated per group. Differences between the groups were calculated by 1 way ANOVA with Kruskal-Wallis test and Dunn's Multiple Comparison test. Significance was defined as a P value of less than 0.05.

AtGlcAK [5] = biological target: T2, AtGlcAK; assay: AtGlcAK substrate specificity CE assay; format: biochemical
Description: Substrate specificity assays. […] The reactions were quenched and assayed with the same method as those for pH profile. All reactions were performed in duplicates.

human FGF-2 = biological target: T3, human FGF-2 (Homo sapiens, UniProt P09038); assay: Inhibition of FGF-2 binding to immobilized heparin-biotin; conditions: compound 1 mM; FGF 1 μM
T3 construct: purchased PeproTech Inc (Rocky Hill, N.J.)
Text: as §3, §4

[6] = system: T4, MBP-KfiA-His6 (Escherichia coli); assay: GlcNAcT donor substrate specificity of MBP-KfiA-His6 (Example 12); format: biochemical, E. coli; conditions: acceptor GlcAβ2AA 1 mM, UDP-sugar 1 mM, MnCl2 10 mM, KfiA 2.8 μg μl^−1, 24 h, 37° C.
T4 construct: made in house; host or cells: E. coli BL21(DE3) co-expressing chaperone plasmid pGro7
Description: (§5) PmHS2, KfiA, and related fusion proteins were expressed, purified, and characterized as described in Example 1. Reactions with UDP-sugars were carried out in duplicate at 37° C. in MES (100 mM, pH 6.5) containing UDP-GlcNAc or one of its derivatives (1 mM), GlcAβ2AA (1 mM), MnCl2 (10 mM) and KfiA (2.8 μg μl^−1) or PmHS2 (1.1 μg μl^−1) for 24 h. The reaction mixtures were stopped by adding ice-cold 10% (v/v) acetonitrile to make 100-fold dilutions and the mixtures were analyzed by HPLC as described for the pH profile.
(§6) Substrate specificity of the GlcNAcT activities of MBP-KfiA-his6 and his6-PmHS2. […] The reactions were easily analyzed by high performance liquid chromatography (HPLC) equipped with a fluorescence detector using an excitation wavelength of 315 nm and an emission wavelength of 400 nm to determine the ratio of the fluorescent disaccharide product formed and the fluorescent GlcAβ2AA acceptor.

His6-PmHS2 = assay: GlcNAcT donor substrate specificity of His6-PmHS2 (Example 12); format: biochemical, Pasteurella multocida; conditions: acceptor GlcAβ2AA 1 mM, UDP-sugar 1 mM, MnCl2 10 mM, PmHS2 1.1 μg μl^−1, 24 h, 37° C.
Description: as §5, §6

T1 sequence (P05230 whole entry): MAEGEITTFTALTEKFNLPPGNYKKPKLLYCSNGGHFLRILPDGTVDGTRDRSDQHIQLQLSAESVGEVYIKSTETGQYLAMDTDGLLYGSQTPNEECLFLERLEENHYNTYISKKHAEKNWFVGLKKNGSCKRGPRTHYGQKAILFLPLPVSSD
T2 sequence (Q93ZC9 other isoform, or with tags, fused parts or gaps I297M): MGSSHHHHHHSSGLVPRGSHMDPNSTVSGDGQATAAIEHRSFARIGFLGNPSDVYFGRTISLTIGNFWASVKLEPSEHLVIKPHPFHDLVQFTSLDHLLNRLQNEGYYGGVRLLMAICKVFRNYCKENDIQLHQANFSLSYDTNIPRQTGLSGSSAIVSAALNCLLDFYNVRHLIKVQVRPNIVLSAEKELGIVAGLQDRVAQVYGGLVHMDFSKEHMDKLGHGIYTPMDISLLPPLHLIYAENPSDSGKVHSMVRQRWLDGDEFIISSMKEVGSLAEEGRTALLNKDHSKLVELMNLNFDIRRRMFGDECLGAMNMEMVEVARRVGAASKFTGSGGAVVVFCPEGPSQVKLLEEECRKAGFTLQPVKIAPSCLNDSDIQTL
T3 sequence (P09038 134-288): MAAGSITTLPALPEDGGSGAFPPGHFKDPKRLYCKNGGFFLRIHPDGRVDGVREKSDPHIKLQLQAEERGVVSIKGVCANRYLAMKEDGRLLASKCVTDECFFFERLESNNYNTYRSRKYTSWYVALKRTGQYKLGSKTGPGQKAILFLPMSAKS

Compound: O=C(CO)N[C@H]1[C@@H](OP(=O)(O)OP(=O)(O)OC[C@H]2O[C@@H](n3ccc(=O)[nH]c3=O)[C@H](O)[C@@H]2O)O[C@H](CO)[C@@H](O)[C@@H]1O [Compound F17-3, Uridine 5′-diphospho-2-hydroxyacetamido-2-deoxy-α-D-glucopyranoside]
donor substrate for PmHS2 (PmHS2 [1]): can use
donor substrate for PmHS2 (PmHS2 [2]): tolerable donor substrates
donor substrate for KfiA (KfiA): can use

FGF-1 (% inhibition) (human FGF-1): 76%
Compound: GlcAβ1-4GlcNH2α1-4GlcAβ2AA [Compound F24-11]

Compound: O=C[C@@H](O)[C@H](O)[C@@H](O)[C@H](O)C(=O)O [IdoA, iduronic acid]
substrate for AtGlcAK (formation of sugar-1-phosphate) (AtGlcAK [3]): acceptable substrates

Compound: Neu5Acα2-6Galβ1-4GlcNAcβ1-3(Neu5Acα2-6)Galβ1-4Glc [DSLNnT]
NEC preventing effect in neonatal rats [4]: protects neonatal rats from necrotizing enterocolitis
mean ileum pathology score (0: healthy; 4: complete destruction) [4]: 1.29±0.54

Compound: O=C[C@H](O)[C@@H](O)[C@@H](O)[C@H](O)C(=O)O [GalA, galacturonic acid]
substrate for AtGlcAK (formation of sugar-1-phosphate) (AtGlcAK [3]): acceptable substrates
Percentage conversion of ATP (AtGlcAK [5]; High enzyme Conc. (2.1 μg in 20 μL, 60 min, 37° C.)): 15.3%
Percentage conversion of ATP (AtGlcAK [5]; Low enzyme Conc. (412 ng in 20 μL, 15 min, 37° C.)): 6.2%

Compound: CC(=O)N[C@H]1[C@H](O[C@H]2[C@@H](O)[C@@H](CO)O[C@@H](O[C@H]3[C@H](O)[C@@H](O)C(O)O[C@@H]3CO)[C@@H]2O)O[C@H](CO)[C@@H](O[C@@H]2O[C@H](CO)[C@H](O)[C@H](O[C@]3(C(=O)O)C[C@H](O)[C@@H](NC(C)=O)[C@H]([C@H](O)[C@H](O)CO)O3)[C@H]2O)[C@@H]1O (some centres unmarked) [3′″-sLNnT, Neu5Acα2-3Galβ1-4GlcNAcβ1-3Galβ1-4Glc]
NEC preventing effect in neonatal rats [4]: lacking of NEC preventing effect
mean ileum pathology score (0: healthy; 4: complete destruction) [4]: 2.05±0.55

Compound: [N-]=[N+]=NCC(=O)N[C@H]1[C@@H](OP(=O)(O)OP(=O)(O)OC[C@H]2O[C@@H](n3ccc(=O)[nH]c3=O)[C@H](O)[C@@H]2O)O[C@H](CO)[C@@H](O)[C@@H]1O [Compound F17-4, Uridine 5′-diphospho-2-azidoxyacetamido-2-deoxy-α-D-glucopyranoside]
donor substrate for PmHS2 (PmHS2 [1]): can use
donor substrate for PmHS2 (PmHS2 [2]): tolerable donor substrates
donor substrate for KfiA (KfiA): can use

FGF-1 (% inhibition) (human FGF-1): 58%
FGF-2 (% inhibition) (human FGF-2): 55%
Compound: GlcNAc6NSα1-4GlcAβ1-4GlcNSα1-4GlcAβ2AA [Compound F24-16]

Compound: CC(=O)N[C@H]1[C@@H](OP(=O)(O)OP(=O)(O)OC[C@H]2O[C@@H](n3ccc(=O)[nH]c3=O)[C@H](O)[C@@H]2O)O[C@H](CO)[C@@H](O)[C@@H]1O [Compound F17-1, Uridine 5′-diphospho-2-acetamido-2-Deoxy-α-D-glucopyranoside]
donor substrate for PmHS2 (PmHS2 [1]): best substrate
donor substrate for MBP-KfiA-His6 [6]: can be used by MBP-KfiA-His6
donor substrate for the α1-4GlcNAcT activity of His6-PmHS2 (His6-PmHS2): suitable donor substrates for His6-PmHS2
donor substrate for PmHS2 (PmHS2 [2]): tolerable donor substrates
donor substrate for KfiA (KfiA): best substrate

Compound: O=C(NC1C(OP(=O)(O)OP(=O)(O)OCC2OC(n3ccc(=O)[nH]c3=O)C(O)C2O)OC(CO)C(O)C1O)C(F)(F)F [Compound F17-2, Uridine 5′-diphospho-2-deoxy-2-trifluoroacetamido-α-D-glucopyranoside]
donor substrate for PmHS2 (PmHS2 [1]): can use
donor substrate for PmHS2 (PmHS2 [2]): tolerable donor substrates
donor substrate for KfiA (KfiA): can use

FGF-1 (% inhibition) (human FGF-1): 62%
Compound: GlcNAc6N3α1-4GlcAβ1-4GlcNH2α1-4GlcAβ2AA [Compound F24-13]
